For 28 compounds, EC50 and IC50 results are on record in ChEMBL document CHEMBL1146261, “Design of potent inhibitors of human beta-secretase. Part 2” (Bioorg Med Chem Lett, 2007).

The target of assay [1] is T1, Beta-secretase 1 (Homo sapiens, UniProt P56817). Put plainly: Inhibition of BACE expressed in HEK293 cells. It is filed as cell-based.
The target of assay [2] is T1, Beta-secretase 1. The experiment in a line: Inhibition of BACE.

For orientation: EC50 means the concentration needed to bring the measured effect to its halfway point. One may read the IC50 as the concentration at which inhibition is half-maximal. Low values mean higher potency, high ones lower potency.

T1 sequence (P56817 whole entry): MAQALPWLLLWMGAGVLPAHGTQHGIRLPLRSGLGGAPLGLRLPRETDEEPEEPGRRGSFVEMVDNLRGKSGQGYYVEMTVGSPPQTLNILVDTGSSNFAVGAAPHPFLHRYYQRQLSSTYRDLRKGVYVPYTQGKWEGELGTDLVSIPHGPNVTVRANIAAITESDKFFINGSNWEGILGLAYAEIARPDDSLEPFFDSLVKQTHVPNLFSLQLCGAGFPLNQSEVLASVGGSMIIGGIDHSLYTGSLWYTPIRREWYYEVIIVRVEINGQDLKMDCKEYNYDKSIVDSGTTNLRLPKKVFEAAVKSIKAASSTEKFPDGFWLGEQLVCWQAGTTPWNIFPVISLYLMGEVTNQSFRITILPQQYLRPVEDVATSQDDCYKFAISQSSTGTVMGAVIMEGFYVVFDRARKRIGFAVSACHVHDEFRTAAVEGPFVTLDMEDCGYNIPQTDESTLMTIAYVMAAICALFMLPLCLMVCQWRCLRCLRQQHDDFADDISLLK

With `CCCCS(=O)(=O)C[C@@H](NC(=O)C1CC1)C(=O)N[C@@H](Cc1cc(F)cc(F)c1)[C@H](O)CNCc1cccc(CC)c1`, the EC50 in assay [1] was 4 nM. In assay [2], this compound yielded an IC50 of 10 nM.
For `CCCC(CCC)S(=O)(=O)C[C@@H](NC(=O)c1ccc(OC)cc1)C(=O)N[C@@H](Cc1cc(F)cc(F)c1)[C@H](O)CNCc1cccc(CC)c1`, in that order: 11 nM and 2 nM.
Taken in the same sequence, the figures for `CCCC(CCC)S(=O)(=O)C[C@@H](NC(=O)c1cccnc1)C(=O)N[C@@H](Cc1cc(F)cc(F)c1)[C@H](O)CNCc1cccc(CC)c1` were 1 nM and 1 nM.
In assay [2], `CCCC(CCC)S(=O)(=O)C[C@@H](NC(=O)OCc1ccccc1)C(=O)N[C@@H](Cc1cc(F)cc(F)c1)[C@H](O)CNCc1cccc(CC)c1` returned an IC50 of 3 nM. In other words, the single-digit nanomolar range.
The compound `CCCCS(=O)(=O)CC(NC(=O)OCCC#N)C(=O)N[C@@H](Cc1cc(F)cc(F)c1)[C@H](O)CNCc1cccc(CC)c1` (some centres undefined) came in with an EC50 in assay [1] of 5 nM. Further, 8 nM corresponded to half-maximal inhibition in assay [2] (IC50).
Take `CCCCS(=O)(=O)C[C@@H](NC(=O)OCC(F)(F)F)C(=O)N[C@@H](Cc1cc(F)cc(F)c1)[C@H](O)CNCc1cccc(CC)c1`: in assay [2], the IC50 was determined as 4 nM. In other words, the single-digit nanomolar range.
The compound `CCCCS(=O)(=O)C[C@@H](NC(C)=O)C(=O)N[C@@H](Cc1cc(F)cc(F)c1)[C@H](O)CNCc1cccc(CC)c1` gave a concentration for a half-maximal effect (EC50) in assay [1] of 6 nM. The compound further gave an IC50 in assay [2] of 13 nM.
For `CCCC(CCC)S(=O)(=O)C[C@@H](NC(=O)c1ccc(C(F)(F)F)cc1)C(=O)N[C@@H](Cc1cc(F)cc(F)c1)[C@H](O)CNCc1cccc(CC)c1`, in that order: 76 nM and 53 nM.
Taken in the same sequence, the figures for `CCCC(CCC)S(=O)(=O)C[C@@H](NC(=O)c1ccccc1)C(=O)N[C@@H](Cc1cc(F)cc(F)c1)[C@H](O)CNCc1cccc(CC)c1` were 14 nM and 495 nM.
For `CCCCS(=O)(=O)C[C@@H](NC(=O)c1cnccc1O)C(=O)N[C@@H](Cc1cc(F)cc(F)c1)[C@H](O)CNCc1cccc(CC)c1`, in that order: 24 nM and 5 nM.
As for `CCCC(CCC)S(=O)(=O)C[C@@H](NC(=O)c1cccc(Cl)c1)C(=O)N[C@@H](Cc1cc(F)cc(F)c1)[C@H](O)CNCc1cccc(CC)c1`, in assay [1], the EC50 came out at 48 nM. The compound also yielded an IC50 in assay [2] of 5 nM.
Taken in the same sequence, the figures for `CCCC(CCC)S(=O)(=O)C[C@@H](NC(=O)c1cccc(O)c1)C(=O)N[C@@H](Cc1cc(F)cc(F)c1)[C@H](O)CNCc1cccc(CC)c1` were 9 nM and 2 nM.
For `CCCCS(=O)(=O)C[C@@H](NC(=O)c1cccnc1)C(=O)N[C@@H](Cc1cc(F)cc(F)c1)[C@H](O)CNCc1cccc(CC)c1`, in that order: 1 nM and 2 nM.
The compound `CCCCS(=O)(=O)C[C@@H](NC(=O)c1ncc[nH]1)C(=O)N[C@@H](Cc1cc(F)cc(F)c1)[C@H](O)CNCc1cccc(CC)c1` gave a half-maximal effective concentration (EC50) in assay [1] of 4 nM. This compound showed a half-inhibitory concentration (IC50) in assay [2] of 4 nM.
As to `CCCCS(=O)(=O)C[C@@H](NC(=O)OCCNC(C)=O)C(=O)N[C@@H](Cc1cc(F)cc(F)c1)[C@H](O)CNCc1cccc(CC)c1`, in assay [1], a half-maximal response (EC50) required 12 nM. Moreover, it took 27 nM to reach half-maximal inhibition in assay [2] (IC50).
For `CCCC(CCC)S(=O)(=O)C[C@@H](NC(=O)c1ccccc1C)C(=O)N[C@@H](Cc1cc(F)cc(F)c1)[C@H](O)CNCc1cccc(CC)c1`, in that order: 59 nM and 15 nM.
Regarding `CCCCS(=O)(=O)C[C@@H](NC(=O)OC)C(=O)N[C@@H](Cc1cc(F)cc(F)c1)[C@H](O)CNCc1cccc(CC)c1`, the EC50 in assay [1] came to 2 nM. This compound also yielded an IC50 in assay [2] of 4 nM.
For `CCCC(CCC)S(=O)(=O)C[C@@H](NC(=O)OCc1ccncc1)C(=O)N[C@@H](Cc1cc(F)cc(F)c1)[C@H](O)CNCc1cccc(CC)c1`, in that order: 5 nM and 3 nM.
Taken in the same sequence, the figures for `CCCCS(=O)(=O)C[C@@H](NC(=O)c1ccncc1)C(=O)N[C@@H](Cc1cc(F)cc(F)c1)[C@H](O)CNCc1cccc(CC)c1` were 1 nM and 5 nM.
Taken in the same sequence, the figures for `CCCCS(=O)(=O)C[C@@H](NC(=O)COC)C(=O)N[C@@H](Cc1cc(F)cc(F)c1)[C@H](O)CNCc1cccc(CC)c1` were 4 nM and 22 nM.
On to `CCCCS(=O)(=O)C[C@@H](NC(=O)c1cnccn1)C(=O)N[C@@H](Cc1cc(F)cc(F)c1)[C@H](O)CNCc1cccc(CC)c1`, for which the EC50 in assay [1] turned out to be 0.2 nM. This compound also displayed a half-inhibitory concentration (IC50) in assay [2] of 4 nM.
With `CCCCS(=O)(=O)C[C@@H](NC(=O)c1cc(C)n[nH]1)C(=O)N[C@@H](Cc1cc(F)cc(F)c1)[C@H](O)CNCc1cccc(CC)c1`, the midpoint of the response in assay [1], the EC50, lay at 4 nM. For the same compound, the 50% inhibitory concentration (IC50) in assay [2] came to 4 nM.
In assay [1], `CCCCS(=O)(=O)C[C@@H](NC(=O)SC1CCOC1)C(=O)N[C@@H](Cc1cc(F)cc(F)c1)[C@H](O)CNCc1cccc(CC)c1` (some centres undefined) yielded an EC50 of 4 nM. The IC50 in assay [2] is 15 nM.
With `CCCCS(=O)(=O)C[C@@H](NC(=O)OCc1cccnc1)C(=O)N[C@@H](Cc1cc(F)cc(F)c1)[C@H](O)CNCc1cccc(CC)c1`, in assay [1], the EC50 came to 0.6 nM. This compound also came in with a half-maximal inhibitory concentration (IC50) in assay [2] of 10 nM.
`CCCCS(=O)(=O)C[C@@H](NC(=O)OCc1ccncc1)C(=O)N[C@@H](Cc1cc(F)cc(F)c1)[C@H](O)CNCc1cccc(CC)c1` gave a concentration for a half-maximal effect (EC50) in assay [1] of 2 nM. For the same compound, in assay [2], the IC50 is 11 nM.
For `CCCC(CCC)S(=O)(=O)C[C@@H](NC(=O)c1ccc(C)cc1)C(=O)N[C@@H](Cc1cc(F)cc(F)c1)[C@H](O)CNCc1cccc(CC)c1`, in that order: 19 nM and 4 nM.
For `CCCC(CCC)S(=O)(=O)C[C@@H](NC(=O)OC)C(=O)N[C@@H](Cc1cc(F)cc(F)c1)[C@H](O)CNCc1cccc(CC)c1`, in that order: 2 nM and 3 nM.
In the case of `CCCC(CCC)S(=O)(=O)C[C@@H](NC(=O)OCc1cccnc1)C(=O)N[C@@H](Cc1cc(F)cc(F)c1)[C@H](O)CNCc1cccc(CC)c1`, it took 5 nM to reach a half-maximal effect in assay [1] (EC50). In assay [2], half-maximal inhibition (IC50) required 4 nM.
